{
  "source": "patent US8648180B2",
  "about": "“Compound Smilaxchinoside F” (Guilin Sanjin Pharmaceuticals Co., Ltd., priority 2010, dated 2014)",
  "system": "Human lung cancer cells Spc-A1",
  "assay": "MTT method, anti-proliferation on lung cancer cell line SPC-A1",
  "assay_type": "cell-based",
  "conditions": "for Inhibition rate (%) / OD value: 5Fu 10^−4 mol/L; for OD value: A at 490 nm, x ± s, n = 5",
  "protocol": "Human lung cancer cells Spc-A1 (hereinafter referred to as SPC), is purchased from Wuhan Cell Collection Center (cell bank of China Center for Type CultureCollection).\nThe tumor cells are placed in the RPMI-1640 complete medium including 10% fetal calf serum and are cultured at 37° C. under 5% CO2 incubator. When the cell growth reaches the logarithmic phase (approximately 80% integration), cells are subcultured. The experiments are divided into negative control group (RPMI-1640), positive drug group (5Fu, 10^−4 mol·L^−1) and reagent group of Smilaxchinoside F at different concentrations, which are prepared by Guilin Sanjin Pharmaceutical Co., Ltd, in accordance with example 1 of the present invention.\n5×10^7·L^−1 cells at logarithmic phase are seeded in 96-well plates, each well 180 μL. After culturing for 24 h, medicine is added, each well 20 μL, five parallel wells for each group. On 4 hours before the end of culture, 20 μL of 5 g·L^−1 MTT solution is added to the each well. After the end of the culture (48 h and 72 h), the supernatant is discarded. 150 μL of DMSO is added to each wells; the optical density (A value) of each well is detected by a microplate reader at 490 nm; the tumor suppression percentage is calculated.",
  "note": "“And” between values parts separate entries of the source, which are not always exact repeats. Equal values may be shown once.",
  "data": [
    {"smiles": "O=c1[nH]cc(F)c(=O)[nH]1", "note": "[5Fu]", "values": [
      {"measurement": "Effect on SPA (lung cancer) cell proliferation in vitro, in words", "value": "significant anti-tumor effect"},
      {"measurement": "Inhibition rate (%)", "setting": "48 h", "value": "39.4% and 39.37%"},
      {"measurement": "OD value", "setting": "48 h", "value": "0.372 ± 0.031"},
      {"measurement": "Inhibition rate (%)", "setting": "72 h", "value": "59.6% and 59.61%"},
      {"measurement": "OD value", "setting": "72 h", "value": "0.295 ± 0.026"}
    ]}
  ]
}
